Molecular target: T1, human TRPC6 (Homo sapiens, UniProt Q9Y210)
T1 construct: expressed in transfected cells
T1 sequence (Q9Y210 1-931): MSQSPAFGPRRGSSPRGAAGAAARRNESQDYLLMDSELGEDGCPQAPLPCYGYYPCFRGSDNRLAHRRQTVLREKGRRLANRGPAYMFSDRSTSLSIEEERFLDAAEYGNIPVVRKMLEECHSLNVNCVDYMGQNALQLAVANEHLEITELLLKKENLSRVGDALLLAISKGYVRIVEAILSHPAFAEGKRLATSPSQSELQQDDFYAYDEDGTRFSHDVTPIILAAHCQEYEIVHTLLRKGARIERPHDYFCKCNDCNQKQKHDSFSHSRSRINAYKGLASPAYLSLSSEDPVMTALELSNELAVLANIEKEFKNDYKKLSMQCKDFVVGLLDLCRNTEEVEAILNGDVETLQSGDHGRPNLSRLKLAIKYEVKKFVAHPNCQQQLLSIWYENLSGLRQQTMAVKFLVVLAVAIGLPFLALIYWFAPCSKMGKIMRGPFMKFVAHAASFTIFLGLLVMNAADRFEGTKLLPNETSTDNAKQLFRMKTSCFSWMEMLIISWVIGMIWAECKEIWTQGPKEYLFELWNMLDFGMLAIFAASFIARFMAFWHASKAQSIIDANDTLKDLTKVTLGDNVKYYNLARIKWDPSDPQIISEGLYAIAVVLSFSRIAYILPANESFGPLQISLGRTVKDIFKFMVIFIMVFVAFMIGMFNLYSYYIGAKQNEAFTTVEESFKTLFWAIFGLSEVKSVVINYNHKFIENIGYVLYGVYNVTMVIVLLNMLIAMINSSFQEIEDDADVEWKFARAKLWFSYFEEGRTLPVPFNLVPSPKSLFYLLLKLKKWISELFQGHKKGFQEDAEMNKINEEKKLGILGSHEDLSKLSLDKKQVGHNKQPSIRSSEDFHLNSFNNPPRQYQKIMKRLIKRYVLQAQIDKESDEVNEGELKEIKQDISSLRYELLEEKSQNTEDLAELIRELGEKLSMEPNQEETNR
Test: High throughput screening assay: Fluo4/AM calcium fluorescence in HEK293/TREx cells expressing human TRPC6, agonist GSK1702934A (single concentration 10 μM and IC50 curves)
Assay type: cell-based
Conditions: antagonist effect against human TRPC6, 7 concentrations 20 μM to 0.027 μM, triplicate
Text: High Throughput Screening Assay
This screening assay measures human TRPC6 (transient receptor potential cation channel, subfamily C, member 6) ion channel activation via addition either of the commercially available DAG ligand analogue OAG (1-oleoyl-2-acetyl-sn-glycerol) or of the TRPC6 agonist 1-[1-(4,5,6,7,8-pentahydrocyclohepta[2,1-d]thiophen-2-ylcarbonyl)-4-piperidyl]-3-hydrobenzimidazol-2-one (GSK1702934A). The assay utilizes a fluorescent calcium sensor 4-(6-Acetoxymethoxy-2,7-difluoro-3-oxo-9-xanthenyl)-4′-methyl-2,2′-(ethylenedioxy)dianiline-N,N,N′,N′-tetraacetic acid tetrakis(acetoxymethyl) ester (Fluo4/AM) dye from Molecular Devices. Changes (increases) in intracellular calcium concentration as measured by the fluorescent signal increase provide a measurement of channel activity.
The commercially available HEK293/TREx line (Invitrogen) was stably transfected with a human TRPC6 construct and screened by conventional calcium imaging to find clones with human TRPC6 expression following stimulation with 1 μg/ml tetracycline. These cells were maintained in the growth medium recommended by the manufacturer supplemented with 100 μg/ml hygromycin to promote retention of the human TRPC6 construct. After growing to near confluency, cells were plated at a density of ^˜35,000 cells/well in 384 well CellBind plates (Corning) in the presence of 1 μg/ml tetracycline, and allowed to grow for 20-30 hrs. A nearly confluent monolayer resulted. Growth media was removed from the wells and cells were then loaded with […] Fluo4/AM diluted in Ringer's Solution (6.5 g NaCl, 0.42 g KCl, 0.25 g CaCl2) and 0.2 g of sodium bicarbonate; pH 7.4) supplemented with 1% Pluronic F-127 to a final concentration of 0.5 μM and incubated for 60 min, at room temperature. Dye solution was then removed from the cells by inverting plates with a sharp flick, and replaced with 25 μl Ringer's. Following ^˜0.5 hour for recovery from loading, cells were assayed using the Hamamatsu FDSS 6000 system, which permitted illumination at 485 nm. Frames were acquired at a rate of 0.2 Hz. During the assay, the plates were continuously vortexed, with pipette mixing of wells following addition of each reagent. For the screening assay, 26 μl of a diluted compound stock (at 50 μM) was added to each well for 2 minutes following the collection of a short (4 frame) baseline. 13 μl of agonist solution consisting of 125 nM GSK1702934A diluted in high-Ca2+Ringer solution (containing 90 mM Ca2+) was then added to each well, achieving a final concentration of 20 mM Ca2+ and 10 μM test compound. Data was collected for ^˜3 minutes following addition of high Ca2+Ringer. The fluorescent intensity observed at a particular timepoint for each well was divided by the initial fluorescent intensity for that well and the overall response was determined by averaging the resulting fluorescent ratio of the last 4 frames acquired during the experiment excepting the final frame. Negative and Positive controls were included on each plate. Negative controls wells consisted of HEK293/TREx TRPC6 cells exposed to assay buffer and agonist solution, but no test compound. Positive control consisted of wells consisted of HEK293/TREx TRPC6 cells exposed to 25 μM 3-[(2-chlorophenoxy)methyl]phenyl piperidyl ketone (Chembridge) diluted in Ringer's solution and agonist solution. These controls defined zero percent and 100 percent block respectively, and intensity of each well was normalized to these values.
Compounds were tested in triplicate at all concentrations. Standard software was used to fit IC50 curves.

Compound | IC50 [nM]
COc1cc(C(=O)N2CCC(c3nnc(N)cc3OC)CC2)ncc1-c1ccccc1 [Compound 87, [4-(6-Amino-4-methoxy-pyridazin-3-yl)-piperidin-1-yl]-(4-methoxy-5-phenyl-pyridin-2-yl)-methanone] | 540
Nc1ccc(C2CCN(C(=O)c3ccc(-c4ccc(Cl)cc4)cc3)CC2)nn1 [Compound 4, [4-(6-Amino-pyridazin-3-yl)-piperidin-1-yl]-(4′-chloro-biphenyl-4-yl)-methanone] | 1900
CC(C)(C)c1ccc(-c2ccc(C(=O)N3CCC(c4ccc(N)nn4)CC3)cc2)cc1 [Compound 10, [4-(6-Amino-pyridazin-3-yl)-piperidin-1-yl]-(4′-tert-butyl-biphenyl-4-yl)-methanone] | 9200
COc1cc(C(=O)N2CCN(c3cnc(N)cc3OC)C[C@H]2CO)ncc1-c1ccccc1 [Compound 89, [(S)-4-(6-Amino-4-methoxy-pyridin-3-yl)-2-hydroxymethyl-piperazin-1-yl]-(4-methoxy-5-phenyl-pyridin-2-yl)-methanone] | 540
COc1cc(C(=O)N2CCC(c3nnc(N)cc3C)CC2)ncc1-c1ccc(C(F)(F)F)cc1 [Compound 88, [4-(6-Amino-4-methyl-pyridazin-3-yl)-piperidin-1-yl]-[4-methoxy-5-(4-trifluoromethyl-phenyl)-pyridin-2-yl]-methanone] | 280
COc1cc(C(=O)N2C[C@@H]3C[C@H]2CN3c2ccc(N)nn2)ncc1-c1ccc(C(F)(F)F)cc1 [Compound 116, [(1S,4S)-5-(6-Amino-pyridazin-3-yl)-2,5-diaza-bicyclo[2.2.1]hept-2-yl]-[4-methoxy-5-(4-trifluoromethyl-phenyl)-pyridin-2-yl]-methanone] | 190
COc1cc(C(=O)N2CCC(c3ccc(N)nn3)CC2)ccc1-c1ccc(OCC2(C)CC2)nc1 [Compound 79, 6-[1-(3-Methoxy-4-{6-[(1-methylcyclopropyl)methoxy]pyridin-3-yl}benzoyl)piperidin-4-yl]pyridazin-3-amine] | 120
COc1cc(C(=O)N2CCC(c3nnc(N)cc3OC)CC2)ncc1-c1ccc(C(F)(F)F)nc1 [Compound 86, [4-(6-Amino-4-methoxy-pyridazin-3-yl)-piperidin-1-yl]-(4-methoxy-6′-trifluoromethyl-[3,3′]bipyridinyl-6-yl)-methanone] | 660
COc1cc(C(=O)N2CCC(c3ccc(N)nn3)CC2)ncc1-c1ccc(OC(F)F)cc1 [Compound 39, [4-(6-Amino-pyridazin-3-yl)-piperidin-1-yl]-[5-(4-difluoromethoxy-phenyl)-4-methoxy-pyridin-2-yl]-methanone] | 320
COc1cc(C(=O)N2CCC(c3ccc(N)nn3)CC2)ncc1-c1ccc(OCC2CC2)cc1 [Compound 17, [4-(6-Amino-pyridazin-3-yl)-piperidin-1-yl]-[5-(4-cyclopropylmethoxy-phenyl)-4-methoxy-pyridin-2-yl]-methanone] | 75
COc1cc(C(=O)N2CCN(c3cnc(N)cc3OC)C[C@@H]2[C@H](C)O)ncc1-c1ccc(C(F)(F)F)cc1 [Compound 107] | 210
COc1cc(C(=O)N2CCN(c3cnc(N)cc3OC)CC2)ncc1-c1ccc(F)cc1 [Compound 104, [4-(6-Amino-4-methoxy-pyridin-3-yl)-piperazin-1-yl]-[5-(4-fluoro-phenyl)-4-methoxy-pyridin-2-yl]-methanone] | 27
COc1cc(C(=O)N2CCC(c3ccc(N)nn3)CC2)ncc1-c1ccc2c(c1)OCCO2 [Compound 22, [4-(6-Amino-pyridazin-3-yl)-piperidin-1-yl]-[5-(2,3-dihydro-benzo[l ,4]dioxin-6-yl)-4-methoxy-pyridin-2-yl]-methanone] | 430
COc1cc(C(=O)N2CCC(c3ccc(N)nn3)CC2)ccc1-c1ccc(OCC(F)(F)F)cc1 [Compound 58, [4-(6-Amino-pyridazin-3-yl)-piperidin-l-yl]-[2-methoxy-4′-(2,2,2-trifluoro-ethoxy)-biphenyl-4-yl]-methanone] | 81

Continued by falling IC50, values first:

IC50 [nM] | Compound
4000 | COc1ccc(-c2cnc(C(=O)N3CCC(c4ccc(N)nn4)CC3)cc2OC)cn1 [Compound 46, [4-(6-Amino-pyridazin-3-yl)-piperidin-1-yl]-(4,6′-dimethoxy-[3,3′]bipyridinyl-6-yl)-methanone]
640 | COc1cc(C(=O)N2CCC(c3ccc(N)nn3)CC2)ccc1-c1ccc(C(F)(F)F)nc1 [Compound 59, [4-(6-Amino-pyridazin-3-yl)-piperidin-1-yl]-[3-methoxy-4-(6-trifluoromethyl-pyridin-3-yl)-phenyl]-methanone]
450 | COc1cc(C(=O)N2CCC(c3ccc(N)nn3)CC2)ncc1-c1ccc(OC(C)C)c(F)c1 [Compound 20, [4-(6-Amino-pyridazin-3-yl)-piperidin-1-yl]-[5-(3-fluoro-4-isopropoxy-phenyl)-4-methoxy-pyridin-2-yl]-methanone]
440 | COc1cc(C(=O)N2CCN(c3cnc(N)cc3OC)C[C@@H]2[C@@H](C)O)ncc1-c1ccc(C(F)(F)F)cc1 [Compound 106, [(R)-4-(6-Amino-4-methoxy-pyridin-3-yl)-2-((R)-1-hydroxy-ethyl)piperazin-1-yl]-[4-methoxy-5-(4-trifluoromethyl-phenyl)-pyridin-2-yl]-methanone]
340 | COc1cc(C(=O)N2CCC(c3ccc(N)nn3)CC2)ccc1-c1ccc(OCC2CC2)nc1 [Compound 82, [4-(6-Amino-pyridazin-3-yl)-piperidin-1-yl]-[4-(6-cyclopropylmethoxy-pyridin-3-yl)-3-methoxy-phenyl]-methanone]
220 | COc1cc(C(=O)N2CCC(c3ccc(N)nn3)CC2)ccc1-c1ccc(O[C@H](C)C2CC2)nc1 [Compound 81, [4-(6-Amino-pyridazin-3-yl)-piperidin-1-yl]-{4-[6-((R)-1-cyclopropyl-ethoxy)-pyridin-3-yl]-3-methoxy-phenyl}-methanone]
58 | COc1cc(C(=O)N2CCC(c3ccc(N)nn3)CC2)ncc1-c1ccc(C(F)(F)F)c(F)c1 [Compound 26, [4-(6-Amino-pyridazin-3-yl)-piperidin-1-yl]-[5-(3-fluoro-4-trifluoromethyl-phenyl)-4-methoxy-pyridin-2-yl]-methanone]
56 | COc1cc(C(=O)N2CCN(c3cnc(N)cc3C)C[C@@H]2CO)ncc1-c1ccc(C(F)(F)F)cc1 [Compound 92, [(R)-4-(6-Amino-4-methyl-pyridin-3-yl)-2-hydroxymethyl-piperazin-1-yl]-[4-methoxy-5-(4-trifluoromethyl-phenyl)-pyridin-2-yl]-methanone]
